DBAASP
Values after ≈ are worked out from the molar mass of the structure shown. Values joined by “and” are separate entries in the source; they are usually repeats but may differ in a detail not shown here. Identical values can stand only once.

Tests used:
Test in all cases: ≥ marks a high value that may be exact or a test limit, other limits are often not marked, values filed in µg/mL are converted to µM
[1] = test system: Bacillus subtilis 1A751
[2] = test system: Escherichia coli ATCC 25922
[3] = test system: Staphylococcus aureus ATCC 25923
[4] = test system: Salmonella enterica subsp. enterica serovar Choleraesuis CMCC 50020
[5] = test system: Enterococcus faecalis ATCC 29212
[6] = test system: Pseudomonas aeruginosa ATCC 27853
[7] = test system: Bacillus subtilis ATCC 6633
[8] = test system: Escherichia coli DC2
[9] = test system: Corynebacterium xerosis C875
[10] = test system: Escherichia coli UB1005
[11] = test system: Staphylococcus epidermidis C621
[12] = test system: Candida albicans CIB 45437
[13] = test system: Escherichia coli CIB 84492
[14] = test system: Staphylococcus aureus CIB 85462
[15] = test system: Lacticaseibacillus casei ATCC 4646
[16] = test system: Streptococcus sanguinis NY101
[17] = test system: Streptococcus mutans
[18] = test system: Streptococcus mitis ATCC 903
[19] = test system: Streptococcus gordonii Challis DL1
[20] = test system: Veillonella atypica PK1910
[21] = test system: Salmonella enterica subsp. enterica serovar Paratyphi A
[22] = test system: Staphylococcus aureus A170
[23] = test system: Listeria monocytogenes
[24] = test system: Escherichia coli
[25] = test system: Staphylococcus epidermidis
[26] = test system: Helicobacter pylori
[27] = test system: Candida tropicalis ATCC 13803
[28] = test system: Escherichia coli D31
[29] = test system: Candida albicans ATCC 14053
[30] = test system: Staphylococcus aureus ATCC 29213
[31] = test system: Candida albicans ATCC 20032
[32] = test system: Escherichia coli O157
[33] = test system: Staphylococcus epidermidis ATCC 9709
[34] = test system: Staphylococcus aureus ATCC 43300
[35] = test system: Salmonella typhimurium
[36] = test system: Micrococcus luteus ATCC 10420
[37] = test system: Escherichia coli ATCC 25404

SMILES: CC[C@H](C)[C@H](NC(=O)[C@H](CCCCN)NC(=O)[C@@H](NC(=O)[C@H](CC(C)C)NC(=O)[C@@H](NC(=O)[C@H](CCCCN)NC(=O)[C@H](CC(C)C)NC(=O)[C@H](Cc1ccccc1)NC(=O)[C@H](Cc1ccccc1)NC(=O)[C@H](CCCCN)NC(=O)[C@@H](N)CCCCN)C(C)C)[C@@H](C)O)C(=O)N[C@@H](CCCN=C(N)N)C(=O)N[C@H]1CSSC[C@@H](C(=O)N[C@@H](CCCN=C(N)N)C(=O)N[C@H](C(=O)O)[C@@H](C)O)NC(=O)CNC(=O)CNC(=O)[C@H](C)NC(=O)[C@H](C(C)C)NC(=O)[C@H](CCCCN)NC1=O [KKFFLKVLTKIRCKVAGGCRT]
- MIC [1]: ≥ 53.4 µM
- MIC [2]: 3.34 µM (≈ 7.99 µg/mL)
- MIC [3]: 3.34 µM (≈ 7.99 µg/mL)
- MIC [4]: 6.67 µM (≈ 16 µg/mL)

SMILES: C[C@H](NC(=O)[C@H](C)NC(=O)[C@H](CCCCN)NC(=O)[C@H](CCCCN)NC(=O)[C@@H](N)CCCCN)C(=O)N[C@@H](C)C(=O)N[C@@H](Cc1ccccc1)C(=O)N[C@@H](C)C(=O)N[C@@H](C)C(=O)N[C@@H](Cc1c[nH]c2ccccc12)C(=O)N[C@@H](C)C(=O)N[C@@H](C)C(=O)N[C@@H](Cc1ccccc1)C(=O)N[C@@H](C)C(=O)N[C@@H](CCCCN)C(=O)N[C@@H](CCCCN)C(=O)N[C@@H](CCCCN)C(N)=O [KKKAAAFAAWAAFAKKK]
- MIC [2]: > 32 µM
- MIC [5]: > 32 µM
- MIC [6]: > 32 µM
- MIC [7]: 16 µM (≈ 29.4 µg/mL)
- MIC [8]: 16 µM (≈ 29.4 µg/mL)
- MIC [3]: > 32 µM
- MIC [9]: 4 µM (≈ 7.34 µg/mL)
- MIC [10]: ≥ 32 µM
- MIC [11]: ≥ 32 µM

SMILES: CC[C@H](C)[C@H](NC(=O)CN)C(=O)N[C@@H](Cc1ccccc1)C(=O)NCC(=O)N[C@@H](CCCCN)C(=O)N[C@H](C(=O)N[C@@H](CC(C)C)C(=O)NCC(=O)N[C@H](C(=O)NCC(=O)N[C@@H](CCCCN)C(=O)N[C@@H](CCCCN)C(=O)N[C@H](C(=O)N[C@@H](CC(C)C)C(=O)N[C@H]1CSSC[C@@H](C(=O)O)NC(=O)[C@H](CCSC)NC(=O)CNC(=O)[C@H](CO)NC(=O)[C@H](CC(C)C)NC(=O)CNC1=O)C(C)C)C(C)C)[C@@H](C)CC [GIFGKILGVGKKVLCGLSGMC]
- MIC [2]: 15.4 µM (≈ 32 µg/mL)
- MIC [12]: 30.8 µM (≈ 63.9 µg/mL)
- MIC [13]: 15.4 µM (≈ 32 µg/mL)
- MIC [14]: 7.69 µM (≈ 16 µg/mL)
- MIC [3]: 7.69 µM (≈ 16 µg/mL)

SMILES: CC[C@H](C)[C@H](N)C(=O)N[C@@H](CCCCN)C(=O)N[C@@H](CCC(N)=O)C(=O)N[C@@H](CC(C)C)C(=O)N[C@@H](CC(C)C)C(=O)N[C@@H](Cc1cnc[nH]1)C(=O)N[C@@H](Cc1ccccc1)C(=O)N[C@@H](Cc1ccccc1)C(=O)N[C@@H](CCC(N)=O)C(=O)N[C@@H](CCCN=C(N)N)C(=O)N[C@@H](Cc1ccccc1)C(=O)NCC(=O)NCC(=O)NCC(=O)N[C@@H](CCCN=C(N)N)C(=O)N[C@@H](Cc1c[nH]c2ccccc12)C(=O)N[C@@H](CCCN=C(N)N)C(=O)N[C@@H](Cc1c[nH]c2ccccc12)C(=O)N[C@@H](CCCN=C(N)N)C(=O)N[C@@H](Cc1c[nH]c2ccccc12)C(=O)N[C@@H](Cc1ccccc1)C(N)=O [IKQLLHFFQRFGGGRWRWRWF]
- MIC [15]: 5.67 µM (≈ 16 µg/mL)
- MIC [16]: 5.67 µM (≈ 16 µg/mL)
- MIC [17]: 2.83 µM (≈ 8 µg/mL)
- MIC [18]: 22.7 µM (≈ 64 µg/mL)
- MIC [19]: 11.3 µM (≈ 32 µg/mL)
- MIC [20]: 2.83 µM (≈ 8 µg/mL)

SMILES: C[C@@H](O)[C@H](NC(=O)[C@H](CS)NC(=O)[C@H](Cc1ccccc1)NC(=O)[C@H](CS)NC(=O)[C@H](CCCN=C(N)N)NC(=O)[C@H](CCCN=C(N)N)NC(=O)[C@H](CCCN=C(N)N)NC(=O)[C@H](Cc1ccccc1)NC(=O)CNC(=O)[C@H](CCCN=C(N)N)NC(=O)[C@H](CS)NC(=O)[C@H](CC(N)=O)NC(=O)CNC(=O)CNC(=O)[C@H](CO)NC(=O)[C@@H](N)Cc1ccccc1)C(=O)N[C@@H](CCCCN)C(N)=O [FSGGNCRGFRRRCFCTK]
- MIC [21]: 7.52 µM (≈ 15 µg/mL)
- MIC [22]: 20 µM (≈ 40 µg/mL)
- MIC [23]: 20 µM (≈ 40 µg/mL)
- MIC [24]: 7.52 µM (≈ 15 µg/mL)
- MIC [25]: 20 µM (≈ 40 µg/mL)
- MIC [26]: 7.52 µM and 5.01 µM and 6.01 µM

SMILES: CC[C@H](C)[C@@H]1NC(=O)CNC(=O)[C@H](CCCCN)NC(=O)[C@H](CC(N)=O)NC(=O)[C@H](CCCN=C(N)N)NC(=O)[C@H](CCCN=C(N)N)NC(=O)[C@@H](NC(=O)[C@H](CO)NC(=O)[C@H](CCC(N)=O)NC(=O)[C@H](CO)NC(=O)[C@H](CC(N)=O)NC(=O)[C@H](CCCN=C(N)N)NC(=O)[C@@H](NC(=O)CNC(=O)[C@@H](N)CCC(N)=O)C(C)C)CSSC[C@@H]2NC(=O)[C@H](CCCCN)NC(=O)[C@H](C(C)C)NC(=O)[C@H](CCC(N)=O)NC(=O)[C@H](C)NC(=O)CNC(=O)[C@H](CC(C)C)NC(=O)[C@@H]3CSSC[C@H](NC1=O)C(=O)N[C@@H](C(C)C)C(=O)N1CCC[C@H]1C(=O)N[C@@H]([C@@H](C)CC)C(=O)N[C@@H](CCCN=C(N)N)C(=O)N[C@@H](CSSC[C@@H](C(=O)N[C@@H](CCCN=C(N)N)C(=O)N[C@@H](CCCN=C(N)N)C(=O)N[C@@H](CCCCN)C(=O)O)NC2=O)C(=O)N1CCC[C@H]1C(=O)NCC(=O)N[C@@H](CO)C(=O)N[C@@H](CCSC)C(=O)N[C@@H](CCCN=C(N)N)C(=O)N[C@@H](CCC(N)=O)C(=O)N[C@@H]([C@@H](C)CC)C(=O)NCC(=O)N[C@@H]([C@@H](C)O)C(=O)N3 [QGVRNSQSCRRNKGICVPIRCPGSMRQIGTCLGAQVKCCRRK]
- MIC [27]: 4.87 µM (≈ 22.6 µg/mL)
- MIC [28]: 4.87 µM (≈ 22.6 µg/mL)
- MIC [6]: 19.1 µM (≈ 88.6 µg/mL)
- MIC [29]: 9.66 µM (≈ 44.8 µg/mL)
- MIC [30]: 19.1 µM (≈ 88.6 µg/mL)

SMILES: CC[C@H](C)[C@H](NC(=O)CN)C(=O)NCC(=O)NCC(=O)N[C@@H](CCCCN)C(=O)N[C@H](C(=O)N[C@@H](CC(C)C)C(=O)NCC(=O)NCC(=O)N[C@@H](CC(C)C)C(=O)N[C@@H](CCCCN)C(=O)N[C@H](C(=O)N[C@@H](C)C(=O)N[C@@H](CC(C)C)C(=O)N[C@@H](CCCCN)C(=O)NCC(=O)N[C@@H](C)C(=O)N[C@@H](C)C(=O)N[C@@H](CCCCN)C(=O)N[C@@H](CCC(=O)O)C(=O)N[C@@H](CC(C)C)C(=O)N[C@@H](C)C(=O)N[C@@H](CO)C(=O)N[C@H](C(=O)N[C@@H](Cc1ccc(O)cc1)C(=O)N[C@@H](CC(C)C)C(=O)N[C@@H](Cc1cnc[nH]1)C(N)=O)[C@@H](C)O)[C@@H](C)O)[C@@H](C)CC [GIGGKILGGLKTALKGAAKELASTYLH]
- MIC [2]: 7.05 µM (≈ 18.8 µg/mL)
- MIC [7]: ≥ 37.5 µM
- MIC [3]: 3.52 µM (≈ 9.4 µg/mL)
- MIC [31]: ≥ 37.5 µM

SMILES: CC(C)C[C@H](NC(=O)[C@H](CC(C)C)NC(=O)[C@H](Cc1cnc[nH]1)NC(=O)[C@H](CO)NC(=O)[C@H](CC(C)C)NC(=O)[C@H](C)NC(=O)[C@H](Cc1cnc[nH]1)NC(=O)[C@H](Cc1ccccc1)NC(=O)[C@H](CC(C)C)NC(=O)[C@H](C)NC(=O)CNC(=O)[C@H](CC(C)C)NC(=O)[C@@H](N)Cc1ccccc1)C(=O)O [FLGALFHALSHLL]
- MIC [32]: ≥ 64 µM
- MIC [33]: 16 µM (≈ 23 µg/mL)
- MIC [23]: ≥ 64 µM
- MIC [30]: 8 µM (≈ 11.5 µg/mL)
- MIC [34]: 16 µM (≈ 23 µg/mL)
- MIC [35]: ≥ 64 µM
- MIC [36]: 8 µM (≈ 11.5 µg/mL)
- MIC [37]: ≥ 64 µM
